US20030022158A1, “Peptides from the TT virus sequence and monospecific antibodies binding to the TT virus” (priority 1999, published 2003)

Assays:
[1] = system: human IgG antibodies in human serum samples; assay: EIA of human antibody reactivities to overlapping synthetic peptides of TTV ORF1 and ORF2 (Tables 2 and 3); format: binding; details: for optical density (OD) at 405 nm: serum diluted 1:100, OD over 0.500 considered positive
Description: Overlapping peptides (18 amino acids in length containing an 8 amino acid overlap) corresponding to regions of the ORFI and ORF2 of TTV (TABLE 1; Genebank accession no AB008394) were produced by a multiple peptide synthesizer (Syro, Syntex, Germany) using standard Fmoc chemistry (Sallberg et al., Immunology Letters, 30:59 68 (1991), herein expressly incorporated by reference in its entirety).
(§1) The EIAs used to identify which peptides interacted with human sera followed protocols known in the art. (See Zhang et al., J Gen Virol, 78:2735-2746 (1997), herein expressly incorporated by reference in its entirety). Briefly, microplates (Nunc, Denmark) were coated for 48 hours with synthetic peptides at a concentration of 10 μg/ml in 0.05M sodium carbonate buffer pH 9.6. After blocking for 2 hours at room temperature with phosphate buffered saline containing 1% bovine serum albumin, 2% goat serum and 0.05% Tween 20 (dilution buffer) the plates were incubated with human sera diluted 1:100 in dilution buffer. Bound human IgG was detected by incubation with anti-human IgG antibodies conjugated to alkaline phosphatase (Sigma Chemicals, St. Louis, Mo.). The plates were developed by the addition of […] (Sigma) and the optical densities were determined at 405 nm.

[2] = system: human antibodies in human serum samples; assay: EIA reactivities of three human serum samples with deletion and alanine substitution analogues of SEQ ID NO: 1 (Table 6); format: binding; details: positive = more than 50% of the reactivity of the original peptide
Method: as §1
The reactivity to the TATTTTYAYPGTNRPPV (SEQ ID NO: 1) peptide was further characterized by mapping the reactivity of deletion and substitution peptide analogues.

[3] = human serum sample 1, negative for TTV DNA by PCR
[4] = human serum sample 2, negative for TTV DNA by PCR
[5] = human serum sample 3, negative for TTV DNA by PCR
[6] = human serum sample 4, negative for TTV DNA by PCR
[7] = human serum sample 5, negative for TTV DNA by PCR
[8] = human serum sample 6, negative for TTV DNA by PCR
[9] = human serum sample 7, negative for TTV DNA by PCR
[10] = human serum sample 9, positive for TTV DNA by PCR
[11] = human serum sample 11, negative for TTV DNA by PCR
[12] = human serum sample 18, positive for TTV DNA by PCR
[13] = human serum sample 36, positive for TTV DNA by PCR
[14] = human serum sample 48, positive for TTV DNA by PCR
[15] = human serum sample 98, positive for TTV DNA by PCR
[16] = human serum sample 110, positive for TTV DNA by PCR
[17] = human serum sample 155, positive for TTV DNA by PCR
[18] = human serum sample 157, positive for TTV DNA by PCR

22: overlapping synthetic peptide of TTV ORF1 (TATTTTYAYPGTNR) [compound 22]
optical density (OD) at 405 nm [1, 3]: 0.07 OD
optical density (OD) at 405 nm [1, 4]: 0.07 OD
optical density (OD) at 405 nm [1, 5]: 0.07 OD
optical density (OD) at 405 nm [1, 6]: 0.08 OD
optical density (OD) at 405 nm [1, 7]: 0.08 OD
optical density (OD) at 405 nm [1, 8]: 0.09 OD
optical density (OD) at 405 nm [1, 9]: 0.09 OD
optical density (OD) at 405 nm [1, 10]: 0.08 OD
optical density (OD) at 405 nm [1, 11]: 0.11 OD
optical density (OD) at 405 nm [1, 12]: 0.07 OD
optical density (OD) at 405 nm [1, 13]: 0.08 OD
optical density (OD) at 405 nm [1, 14]: 0.10 OD
optical density (OD) at 405 nm [1, 15]: 0.04 OD
optical density (OD) at 405 nm [1, 16]: 0.07 OD
optical density (OD) at 405 nm [1, 17]: 0.11 OD
optical density (OD) at 405 nm [1, 18]: 0.11 OD
OD at 405 nm, reactivity of human serum sample P4 [2]: 0.092 OD
OD at 405 nm, reactivity of human serum sample P7 [2]: 0.103 OD
OD at 405 nm, reactivity of human serum sample P36 [2]: 0.078 OD

21: overlapping synthetic peptide of TTV ORF1 (TATTTTYAYPGTNRP) [compound 21]
optical density (OD) at 405 nm [1, 3]: 0.00 OD
optical density (OD) at 405 nm [1, 4]: 0.00 OD
optical density (OD) at 405 nm [1, 5]: 0.00 OD
optical density (OD) at 405 nm [1, 6]: 0.00 OD
optical density (OD) at 405 nm [1, 7]: 0.00 OD
optical density (OD) at 405 nm [1, 8]: 0.00 OD
optical density (OD) at 405 nm [1, 9]: 0.00 OD
optical density (OD) at 405 nm [1, 10]: 0.00 OD
optical density (OD) at 405 nm [1, 11]: 0.00 OD
optical density (OD) at 405 nm [1, 12]: 0.00 OD
optical density (OD) at 405 nm [1, 13]: 0.00 OD
optical density (OD) at 405 nm [1, 14]: 0.00 OD
optical density (OD) at 405 nm [1, 15]: 0.00 OD
optical density (OD) at 405 nm [1, 16]: 0.00 OD
optical density (OD) at 405 nm [1, 17]: 0.00 OD
optical density (OD) at 405 nm [1, 18]: 0.00 OD
OD at 405 nm, reactivity of human serum sample P4 [2]: 0.100 OD
OD at 405 nm, reactivity of human serum sample P7 [2]: 0.099 OD
OD at 405 nm, reactivity of human serum sample P36 [2]: 0.078 OD

peptide 1: overlapping synthetic peptide of TTV ORF1 (TATTTTYAYPGTNRPPV)
optical density (OD) at 405 nm [1, 3]: 0.00 OD
optical density (OD) at 405 nm [1, 4]: 0.00 OD
optical density (OD) at 405 nm [1, 5]: 0.00 OD
optical density (OD) at 405 nm [1, 6]: 0.00 OD
optical density (OD) at 405 nm [1, 7]: 0.00 OD
optical density (OD) at 405 nm [1, 8]: 0.00 OD
optical density (OD) at 405 nm [1, 9]: 0.00 OD
optical density (OD) at 405 nm [1, 10]: 0.00 OD
optical density (OD) at 405 nm [1, 11]: 0.00 OD
optical density (OD) at 405 nm [1, 12]: 0.00 OD
optical density (OD) at 405 nm [1, 13]: 0.00 OD
optical density (OD) at 405 nm [1, 14]: 0.00 OD
optical density (OD) at 405 nm [1, 15]: 0.00 OD
optical density (OD) at 405 nm [1, 16]: 0.00 OD
optical density (OD) at 405 nm [1, 17]: 0.00 OD
optical density (OD) at 405 nm [1, 18]: 0.00 OD
optical density (OD) at 405 nm, EIA reactivity of human serum sample 1 ([1]; serum sample 1, negative for TTV DNA by PCR, serum 1:100, peptide coated 10 μg/ml, OD over 0.500 positive): 0.09 OD
optical density (OD) at 405 nm, EIA reactivity of human serum sample 2 ([1]; serum sample 2, negative for TTV DNA by PCR, serum 1:100, peptide coated 10 μg/ml, OD over 0.500 positive): 0.10 OD
optical density (OD) at 405 nm, EIA reactivity of human serum sample 3 ([1]; serum sample 3, negative for TTV DNA by PCR, serum 1:100, peptide coated 10 μg/ml, OD over 0.500 positive): 0.13 OD
optical density (OD) at 405 nm, EIA reactivity of human serum sample 4 ([1]; serum sample 4, negative for TTV DNA by PCR, serum 1:100, peptide coated 10 μg/ml, OD over 0.500 positive): 0.11 OD
optical density (OD) at 405 nm, EIA reactivity of human serum sample 5 ([1]; serum sample 5, negative for TTV DNA by PCR, serum 1:100, peptide coated 10 μg/ml, OD over 0.500 positive): 0.10 OD
optical density (OD) at 405 nm, EIA reactivity of human serum sample 6 ([1]; serum sample 6, negative for TTV DNA by PCR, serum 1:100, peptide coated 10 μg/ml, OD over 0.500 positive): 0.16 OD
optical density (OD) at 405 nm, EIA reactivity of human serum sample 7 ([1]; serum sample 7, negative for TTV DNA by PCR, serum 1:100, peptide coated 10 μg/ml, OD over 0.500 positive): 0.09 OD
optical density (OD) at 405 nm, EIA reactivity of human serum sample 9 ([1]; serum sample 9, positive for TTV DNA by PCR, serum 1:100, peptide coated 10 μg/ml, OD over 0.500 positive): 0.08 OD
optical density (OD) at 405 nm, EIA reactivity of human serum sample 11 ([1]; serum sample 11, negative for TTV DNA by PCR, serum 1:100, peptide coated 10 μg/ml, OD over 0.500 positive): 0.12 OD
optical density (OD) at 405 nm, EIA reactivity of human serum sample 18 ([1]; serum sample 18, positive for TTV DNA by PCR, serum 1:100, peptide coated 10 μg/ml, OD over 0.500 positive): 0.08 OD
optical density (OD) at 405 nm, EIA reactivity of human serum sample 36 ([1]; serum sample 36, positive for TTV DNA by PCR, serum 1:100, peptide coated 10 μg/ml, OD over 0.500 positive): 0.09 OD
optical density (OD) at 405 nm, EIA reactivity of human serum sample 48 ([1]; serum sample 48, positive for TTV DNA by PCR, serum 1:100, peptide coated 10 μg/ml, OD over 0.500 positive): 0.08 OD
optical density (OD) at 405 nm, EIA reactivity of human serum sample 98 ([1]; serum sample 98, positive for TTV DNA by PCR, serum 1:100, peptide coated 10 μg/ml, OD over 0.500 positive): 0.08 OD
optical density (OD) at 405 nm, EIA reactivity of human serum sample 110 ([1]; serum sample 110, positive for TTV DNA by PCR, serum 1:100, peptide coated 10 μg/ml, OD over 0.500 positive): 0.08 OD
optical density (OD) at 405 nm, EIA reactivity of human serum sample 155 ([1]; serum sample 155, positive for TTV DNA by PCR, serum 1:100, peptide coated 10 μg/ml, OD over 0.500 positive): 0.14 OD
optical density (OD) at 405 nm, EIA reactivity of human serum sample 157 ([1]; serum sample 157, positive for TTV DNA by PCR, serum 1:100, peptide coated 10 μg/ml, OD over 0.500 positive): 0.14 OD
OD at 405 nm, reactivity of human serum sample P4 [2]: 0.839 OD
OD at 405 nm, reactivity of human serum sample P7 [2]: 1.845 OD
OD at 405 nm, reactivity of human serum sample P36 [2]: 0.825 OD

PDEKSQREILLNKIASY (Peptide Immunogen) [compound 29, overlapping synthetic peptide of TTV ORF1]
optical density (OD) at 405 nm [1, 3]: 0.42 OD
optical density (OD) at 405 nm [1, 4]: 0.36 OD
optical density (OD) at 405 nm [1, 5]: 0.45 OD
optical density (OD) at 405 nm [1, 6]: 0.53 OD
optical density (OD) at 405 nm [1, 7]: 0.22 OD
optical density (OD) at 405 nm [1, 8]: 0.95 OD
optical density (OD) at 405 nm [1, 9]: 0.29 OD
optical density (OD) at 405 nm [1, 10]: 0.21 OD
optical density (OD) at 405 nm [1, 11]: 0.14 OD
optical density (OD) at 405 nm [1, 12]: 0.11 OD
optical density (OD) at 405 nm [1, 13]: 0.09 OD
optical density (OD) at 405 nm [1, 14]: 0.10 OD
optical density (OD) at 405 nm [1, 15]: 0.09 OD
optical density (OD) at 405 nm [1, 16]: 0.25 OD
optical density (OD) at 405 nm [1, 17]: 0.59 OD
optical density (OD) at 405 nm [1, 18]: 0.62 OD
human reactivity to peptide (reactive peptides within ORF1) ([1]; tested human sera, EIA): Reactive
OD at 405 nm, reactivity of human serum sample P4 [2]: 0.142 OD
OD at 405 nm, reactivity of human serum sample P7 [2]: 0.105 OD
OD at 405 nm, reactivity of human serum sample P36 [2]: 0.076 OD
